# According to patent US20250340577A1, “BETA-LACTOMASE INHIBITORS AND USES THEREOF” (Case Western Reserve University, priority 2021, published 2025):
# Where two headings read alike, the source gives them in different places.
# What was measured:
# [1] = tested on: E. coli 29838; assay: MIC with cefepime, agar microdilution, CLSI; assay type: cell-based; settings: compound fixed at 4 ug/ml; CTX-M-14, TEM-1
# Experimental: (§1) Minimum inhibitory concentration (MIC) of MB076 and derivatives (PCF_038-043) in combination with cefepime.
# (§2) MICs were determined by the Agar microdilution method, following CLSI guidelines. Compounds were tested at fixed concentration of 4 ug/ml in combination with cefepime.
# [2] = tested on: E. coli pLTCF1; assay: MIC with cefepime, agar microdilution, CLSI; assay type: cell-based; settings: compound fixed at 4 ug/ml; CTX-M group 9
# Experimental: as §1, §2
# [3] = tested on: K. pneumoniae 253; assay: MIC with cefepime, agar microdilution, CLSI; assay type: cell-based; settings: compound fixed at 4 ug/ml; TEM-12, SHV-5, CTX-M
# Experimental: as §1, §2
# [4] = tested on: K. pneumoniae ST258 C3; assay: MIC with cefepime, agar microdilution, CLSI; assay type: cell-based; settings: compound fixed at 4 ug/ml; KPC-3
# Experimental: as §1, §2
# [5] = tested on: Klebsiella pneumonia/BAA-1705; assay: MIC of MB076 alone or in combination with cefepime or meropenem; assay type: cell-based; settings: Klebsiella pneumoniae, BAA1705; single agent; read-out: MIC
# Experimental: as §2
# [6] = tested on: Klebsiella pneumonia/FDA-CDC AR-BANK#0097; assay: as above; assay type: cell-based; settings: Klebsiella pneumoniae; single agent; read-out: MIC
# Experimental: as §2
# [7] = tested on: Klebsiella pneumonia/FDA-CDC AR-BANK#0098; assay: as above; assay type: cell-based; settings: Klebsiella pneumoniae; single agent; read-out: MIC
# Experimental: as §2
# [8] = assay type: in vivo; settings: for Abdominal tone / Body weight after 1° dose / Body weight after 4° dose / Limb tone / Vocalization: QID q6h; for Piloerection: animals of 4, after 4° dose; for Vocalization: animals of 4
# Experimental: A maximum tolerable dose (MTD) assessment was conducted to evaluate the tolerability of MB076 with meropenem and cilastatin combination. Neutropenic uninfected female ICR mice were used. Meropenem combined with cilastatin was subcutaneously (SC) administered followed by intravenous (IV) administration of MB076 within 10 min. Doses were administered four times (QID) with 6 h intervals (q6h) for one day. Animals were monitored for acute symptoms after the first dose administration and cage side observations were recorded for the subsequent QID doses. Moreover, the body weight of each animal was recorded daily.
# [9] = Single dose IV PK in plasma and thigh homogenate, thigh infection model; assay type: in vivo, mice; settings: for AUC(0-inf) / AUC(0-t) / C0 / clearance / half-life / Vd: female, ICR, mouse; for Vd: read-out: Vss
# Experimental: (§3) A single dose PK study with MB_076 has been conducted to evaluate antibiotic exposure over time in plasma samples and thigh homogenates following a single dose IV administration in K. pneumoniae AR-BANK #0098 (KPC-2) thigh infection model with neutropenic female ICR mice. Among the PK parameters, t1/2, C0, AUClast, AUCINF, Vss and CL were evaluated (Table 7), while for PD parameters, C0/MIC, AUClast/MIC and T>MIC were calculated (Table 8). In particular, the % time over the minimum inhibitory concentration (T>MIC) was calculated for all dose groups to determine the impact of MB076 efficacy in this animal model. Plots of concentration in plasma and thigh homogenate versus time were created and the linearity of the resulting PK parameters was assessed.
# [10] = tested on: K. pneumoniae AR-BANK #0098 (KPC-2); assay type: in vivo; settings: for T > MIC / Time High / Time Low: female, ICR, mouse, in vivo, iv
# Experimental: as §3
# [11] = MEM 500 mg/Kg + cilastatin 200 mg/Kg (SC) + MB076 25 mg/Kg (IV)
# [12] = MEM 500 mg/Kg + cilastatin 200 mg/Kg (SC) + MB076 50 mg/Kg (IV)
# [13] = MEM 1000 mg/Kg + cilastatin 200 mg/Kg (SC) + MB076 25 mg/Kg (IV)
# [14] = MEM 1000 mg/Kg + cilastatin 200 mg/Kg (SC) + MB076 50 mg/Kg (IV)
# [15] = MEM 1000 mg/Kg + cilastatin 200 mg/Kg (SC) + MB076 100 mg/Kg (IV)
# [16] = plasma, 12.5 mg/kg IV single dose
# [17] = plasma, 25 mg/kg IV single dose
# [18] = plasma, 50 mg/kg IV single dose
# [19] = plasma, 100 mg/kg IV single dose
# [20] = thigh homogenate, 12.5 mg/kg IV single dose
# [21] = thigh homogenate, 25 mg/kg IV single dose
# [22] = thigh homogenate, 50 mg/kg IV single dose
# [23] = thigh homogenate, 100 mg/kg IV single dose
compound,measurement,setting,value
Nc1nnc(SCC(=O)NC(Cn2cc(C(=O)O)nn2)B(O)O)s1 (centres unmarked) [MB076],MIC of cefepime in combination with compound,[1],< 0.25 µg/mL
same,MIC of cefepime in combination with compound,[2],< 0.25 µg/mL
same,MIC of cefepime in combination with compound,[3],8 µg/mL
same,MIC of cefepime in combination with compound,[4],1 µg/mL
same,MIC,[5],> 32 µg/mL
same,MIC,[6],> 32 µg/mL
same,MIC,[7],> 32 µg/mL
same,Abdominal tone,[8]; [11],Mild
same,Body weight after 1° dose,[8]; [11],23
same,Body weight after 4° dose,[8]; [11],22
same,Limb tone,[8]; [11],Mild
same,Abdominal tone,[8]; [12],increased
same,Body weight after 1° dose,[8]; [12],23
same,Body weight after 4° dose,[8]; [12],22.2
same,Limb tone,[8]; [12],Mild
same,Abdominal tone,[8]; [13],Mild
same,Body weight after 1° dose,[8]; [13],23.2
same,Body weight after 4° dose,[8]; [13],21.7
same,Limb tone,[8]; [13],Mild
same,Abdominal tone,[8]; [14],Mild
same,Body weight after 1° dose,[8]; [14],23
same,Body weight after 4° dose,[8]; [14],22
same,Limb tone,[8]; [14],Mild
same,Abdominal tone,[8]; [15],Mild
same,Body weight after 1° dose,[8]; [15],23
same,Body weight after 4° dose,[8]; [15],22
same,Limb tone,[8]; [15],increased and Mild
same,Acute toxicity or mortality,"[8]; all tested dose groups, MB076 IV with meropenem + cilastatin SC, QID q6h one day, neutropenic uninfected female ICR mice",No acute toxicity or mortality was observed
same,Piloerection,[8]; [11],4/4 after
same,Piloerection,[8]; [12],4/4 after
same,Piloerection,[8]; [13],4/4 after
same,Piloerection,[8]; [14],4/4 after
same,Piloerection,[8]; [15],4/4 after
same,Vocalization,[8]; [11],1/4
same,Vocalization,[8]; [12],0/4
same,Vocalization,[8]; [13],2/4
same,Vocalization,[8]; [14],3/4
same,Vocalization,[8]; [15],0/4
same,AUC(0-inf),[9]; [16],7200 ng·h/mL
same,AUC(0-t),[9]; [16],7100 ng·h/mL
same,C0,[9]; [16],35.6 µg/mL
same,clearance,[9]; [16],29.1 mL/min/kg
same,half-life,[9]; [16],33.6 min
same,Vd,[9]; [16],0.65 L/kg
same,AUC(0-inf),[9]; [17],17800 ng·h/mL
same,AUC(0-t),[9]; [17],17600 ng·h/mL
same,C0,[9]; [17],84 µg/mL
same,clearance,[9]; [17],23.4 mL/min/kg
same,half-life,[9]; [17],36.6 min
same,Vd,[9]; [17],0.8 L/kg
same,AUC(0-inf),[9]; [18],39100 ng·h/mL
same,AUC(0-t),[9]; [18],39000 ng·h/mL
same,C0,[9]; [18],207 µg/mL
same,clearance,[9]; [18],21.3 mL/min/kg
same,half-life,[9]; [18],25.8 min
same,Vd,[9]; [18],0.35 L/kg
same,AUC(0-inf),[9]; [19],104000 ng·h/mL
same,AUC(0-t),[9]; [19],103000 ng·h/mL
same,C0,[9]; [19],638 µg/mL
same,clearance,[9]; [19],16.1 mL/min/kg
same,half-life,[9]; [19],25.8 min
same,Vd,[9]; [19],0.21 L/kg
same,AUC(0-inf),[9]; [20],1000 ng·h/mL
same,AUC(0-t),[9]; [20],1000 ng·h/mL
same,C0,[9]; [20],6.3 µg/mL
same,half-life,[9]; [20],14.4 min
same,Vd,[9]; [20],2.96 L/kg
same,AUC(0-inf),[9]; [21],1800 ng·h/mL
same,AUC(0-t),[9]; [21],1700 ng·h/mL
same,C0,[9]; [21],17 µg/mL
same,half-life,[9]; [21],6.6 min
same,Vd,[9]; [21],1.38 L/kg
same,AUC(0-inf),[9]; [22],6300 ng·h/mL
same,AUC(0-t),[9]; [22],6300 ng·h/mL
same,C0,[9]; [22],34 µg/mL
same,half-life,[9]; [22],12.6 min
same,Vd,[9]; [22],1.76 L/kg
same,AUC(0-inf),[9]; [23],17300 ng·h/mL
same,AUC(0-t),[9]; [23],17200 ng·h/mL
same,C0,[9]; [23],108 µg/mL
same,half-life,[9]; [23],15 min
same,Vd,[9]; [23],1.07 L/kg
same,Linearity of C0 and AUClast with dose,"[9]; plasma and thigh homogenates, 12.5-100 mg/kg IV",correlated linearly with dose
same,T > MIC,[10]; 12.5 mg/kg,1.69%
same,Time High,[10]; 12.5 mg/kg,0.40 h
same,Time Low,[10]; 12.5 mg/kg,23.60 h
same,T > MIC,"[10]; 12.5 mg/kg, 24 h",0.24%
same,Time High,"[10]; 12.5 mg/kg, 24 h",0.06 h
same,Time Low,"[10]; 12.5 mg/kg, 24 h",23.94 h
same,T > MIC,[10]; 50 mg/kg,1.75%
same,Time High,[10]; 50 mg/kg,0.42 h
same,T > MIC,"[10]; 50 mg/kg, 24 h",3.89%
same,Time High,"[10]; 50 mg/kg, 24 h",0.93 h
same,T > MIC,[10]; 100 mg/kg,2.72%
same,Time High,[10]; 100 mg/kg,0.65 h
same,Time Low,[10]; 100 mg/kg,23.35 h
same,T > MIC,"[10]; 100 mg/kg, 24 h",4.51%
same,Time High,"[10]; 100 mg/kg, 24 h",1.08 h
same,Time Low,"[10]; 100 mg/kg, 24 h",22.92 h
same,AUClast/MIC,"[10]; plasma, 12.5 mg/kg IV",1.77 h
same,AUClast/MIC,"[10]; plasma, 25 mg/kg IV",4.41 h
same,AUClast/MIC,"[10]; plasma, 50 mg/kg IV",9.75 h
same,AUClast/MIC,"[10]; plasma, 100 mg/kg IV",25.81 h
same,AUClast/MIC,"[10]; thigh, 12.5 mg/kg IV",0.25 h
same,AUClast/MIC,"[10]; thigh, 25 mg/kg IV",0.43 h
same,AUClast/MIC,"[10]; thigh, 50 mg/kg IV",1.56 h
same,AUClast/MIC,"[10]; thigh, 100 mg/kg IV",4.30 h
